Assay [1] concerns Thanatephorus cucumeris (Rhizoctonia solani). Description: Thanatephorus cucumeris (Rhizoctonia solani) / liquid culture (foot rot, damping-off). Format: cell-based. The settings on record: 20 ppm; liquid culture (potato dextrose broth), growth inhibition photometrically 3-4 days after application; compared to untreated control. On the procedure:
Example B13: Thanatephorus cucumeris (Rhizoctonia solani)/Liquid Culture (Foot Rot, Damping-Off) Mycelia fragments of a newly grown liquid culture of the fungus are directly mixed into a nutrient broth (potato dextrose broth). After placing a DMSO solution of the test compounds into a microtiter plate (96-well format), the nutrient broth containing the fungal material is added. The test plates are incubated at 24° C. and the inhibition of growth is determined photometrically 3-4 days after application.

Assay [2] deals with Mycosphaerella graminicola (Septoria tritici). Description: Mycosphaerella graminicola (Septoria tritici) / liquid culture (Septoria blotch). Format: cell-based. To be noted: Zymoseptoria tritici, liquid culture (potato dextrose broth), growth inhibition photometrically 4-5 days after application, compared to untreated control. The method, boiled down: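 Cryostored conidia in potato dextrose broth added to compound in DMSO, incubated at 24 °C. Growth inhibition read photometrically 4–5 days after application.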

Assay [3] concerns Mycosphaerella arachidis (Cercospora arachidicola). As to the kind of experiment: Mycosphaerella arachidis (Cercospora arachidicola) / liquid culture (early leaf spot). The settings on record: liquid culture (potato dextrose broth), growth inhibition photometrically 4-5 days after application, compared to untreated control. The assay is classed as cell-based. The essentials:
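Cryostored conidia mixed into potato dextrose broth and added to compound dispensed in DMSO. Plates held at 24 °C; growth inhibition assessed photometrically 4–5 days after application.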

Assay [4] deals with Monographella nivalis (Microdochium nivale). As to the kind of experiment: Monographella nivalis (Microdochium nivale) / liquid culture (foot rot cereals). The assay is classed as cell-based. To be noted: liquid culture (potato dextrose broth), growth inhibition photometrically 4-5 days after application, compared to untreated control. The essentials: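 Cryostored conidia suspended in potato dextrose broth and added to compound dispensed from DMSO solution. Growth at 24 °C; inhibition read photometrically 4–5 days after application.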

In assay [5] the test system is Blumeria graminis f. sp. tritici (Erysiphe graminis f. sp. tritici). As to the kind of experiment: Blumeria graminis f. sp. tritici / wheat / leaf disc preventative (powdery mildew). The assay is classed as in vivo. To be noted: foliar, wheat leaf segments cv. Kanzler, inoculated 1 day after application, assessed 6-8 days after application, compared to untreated control. As for the experimental part: Example B4: Blumeria graminis f. sp. tritici (Erysiphe graminis f. sp. tritici)/Wheat/Leaf Disc Preventative (Powdery Mildew on Wheat) Wheat leaf segments cv. Kanzler are placed on agar in a multiwell plate (24-well format) and sprayed with the formulated test compound diluted in water. The leaf disks are inoculated by shaking powdery mildew infected plants above the test plates 1 day after application. The inoculated leaf disks are incubated at 20° C. and 60% relative humidity under a light regime of 24 h darkness followed by 12 h light/12 h darkness in a climate chamber and the activity of a compound is assessed as percent disease control compared to untreated when an appropriate level of disease damage appears on untreated check leaf segments (6-8 days after application).

The subject of assay [6] is Phaeosphaeria nodorum (Septoria nodorum). Description: Phaeosphaeria nodorum (Septoria nodorum) / wheat / leaf disc preventative (glume blotch). Format: in vivo. To be noted: Parastagonospora nodorum, foliar, wheat leaf segments cv. Kanzler, inoculated 2 days after application, assessed 5-7 days after application, compared to untreated control. The essentials:
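Wheat leaf segments (cv. Kanzler) on agar were sprayed with diluted formulated compound and inoculated with fungal spores 2 days later. Incubation was at 20 °C, 75% relative humidity and 12 h light/dark. Percent disease control versus untreated leaf disks was scored 5-7 days after application.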

Another assay has as its system Fusarium culmorum. Description: microbe, parasite or virus in culture. The assay is classed as cell-based. The settings on record: read-out: control of Fusarium culmorum.
The test system of assay [7] is Botryotinia fuckeliana (Botrytis cinerea). As to the kind of experiment: Botryotinia fuckeliana (Botrytis cinerea) / liquid culture (gray mould). To be noted: liquid culture (Vogels broth), growth inhibition photometrically 3-4 days after application, compared to untreated control. Format: cell-based. The method, boiled down: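 Conidia from cryogenic storage, suspended in Vogels nutrient broth, added to compound applied as a DMSO solution. Incubation at 24 °C; growth inhibition read photometrically 3–4 days after application.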

The subject of a further assay is Alternaria solani. As to the kind of experiment: Alternaria solani / tomato / leaf disc (early blight). To be noted: foliar, tomato leaf disks cv. Baby, inoculated 2 days after application, assessed 5-7 days after application, compared to untreated control. The assay is classed as in vivo. On the procedure:
Example B1: Alternaria solani/Tomato/Leaf Disc (Early Blight) Tomato leaf disks cv. Baby are placed on agar in multiwell plates (24-well format) and sprayed with the formulated test compound diluted in water. The leaf disks are inoculated with a spore suspension of the fungus 2 days after application. The inoculated leaf disks are incubated at 23° C./21° C.

A further assay deals with Sclerotinia sclerotiorum. Description: Sclerotinia sclerotiorum / liquid culture (cottony rot). The assay is classed as cell-based. To be noted: liquid culture (potato dextrose broth), growth inhibition photometrically 3-4 days after application, compared to untreated control. As for the experimental part: Example B14: Sclerotinia sclerotiorum/Liquid Culture (Cottony Rot) Mycelia fragments of a newly grown liquid culture of the fungus are directly mixed into a nutrient broth (potato dextrose broth). After placing a DMSO solution of test compound into a microtiter plate (96-well format) the nutrient broth containing the fungal material is added. The test plates are incubated at 24° C. and the inhibition of growth is determined photometrically 3-4 days after application.

The next assay concerns Pyrenophora teres. As to the kind of experiment: Pyrenophora teres / barley / leaf disc preventative (net blotch). The assay is classed as in vivo. The settings on record: foliar, barley leaf segments cv. Hasso, inoculated 2 days after application, assessed 5-7 days after application, compared to untreated control. The essentials:
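Leaf segments of barley cv. Hasso on agar sprayed with water-diluted formulated compound, then inoculated with spores 2 days later. Incubation at 20 °C, 65% RH, 12 h light/12 h dark.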

In assay [8] the test system is Glomerella lagenarium (Colletotrichum lagenarium). As to the kind of experiment: Glomerella lagenarium (Colletotrichum lagenarium) / liquid culture (anthracnose). Format: cell-based. To be noted: Colletotrichum orbiculare, liquid culture (potato dextrose broth), growth inhibition photometrically 3-4 days after application, compared to untreated control. The essentials: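 Cryostored conidia in potato dextrose broth were added to wells holding compound in DMSO and incubated at 24° C. Growth inhibition read photometrically 3-4 days after application.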

A value given as a limit tells only on which side of the number the result lay.

Broadly, the pest or weed control is how far the test organism was held down. Read a low pest or weed control as weak suppression.

For `C[C@@H]1c2ccsc2[C@@](C)(c2cnn(C)c2)CN1C(=O)c1nnc(-c2ccc(F)cc2F)s1` (racemic) [Compound P-9, [5-(2,4-difluorophenyl)-1,3,4-thiadiazol-2-yl]-[rac-(4S,7R)-4,7-dimethyl-7-(1-methylpyrazol-4-yl)-4,6-dihydrothieno[3,2-c]pyridin-5-yl]methanone], in assay [1], the “control of Thanatephorus cucumeris” value is given as “at least 80%”. For the same molecule, the inhibition of growth at 20 ppm in assay [2], in assay [3] and in [4] was no less than 80% each time.

`C[C@H]1c2sccc2[C@@H](c2cnn(C)c2)CN1C(=O)c1cc(-c2ccc(F)cc2F)on1` (racemic) [Compound P-14, [5-(2,4-difluorophenyl)isoxazol-3-yl]-[rac-(4R,7S)-7-methyl-4-(1-methylpyrazol-4-yl)-5,7-dihydro-4H-thieno[2,3-c]pyridin-6-yl]methanone]: the pest or weed control at 200 ppm (in assay [5]; in assay [6]; with Alternaria solani; with Pyrenophora teres) was no less than 80% in each case. Also, the inhibition of growth at 20 ppm (in assay [2]; in the assay on Fusarium culmorum; in [7]; in assay [3]; in the assay on Sclerotinia sclerotiorum; in assay [8]) was no less than 80% in each case.

With `C[C@H]1c2sccc2[C@@H](c2cnn(C)c2)CN1C(=O)c1nnc(-c2ccc(F)cc2F)s1` [Compound P-2, [5-(2,4-difluorophenyl)-1,3,4-thiadiazol-2-yl]-[(4R,7S)-7-methyl-4-(1-methylpyrazol-4-yl)-5,7-dihydro-4H-thieno[2,3-c]pyridin-6-yl]methanone], the pest or weed control at 200 ppm (in [5]; in assay [6]; in the assay on Alternaria solani; in the assay with Pyrenophora teres) was no less than 80% throughout. Moreover, the inhibition of growth at 20 ppm (in [2]; in the assay on Fusarium culmorum; in assay [7]; in assay [3]; in the assay on Sclerotinia sclerotiorum; in [4]) was no less than 80% each time. Further, the inhibition of growth at 20 ppm in [8] is no less than 80%.

On to `C[C@H]1c2sccc2[C@@](C)(c2cnn(C)c2)CN1C(=O)c1nnc(-c2ccc(F)cc2F)s1` [Compound P-6, [5-(2,4-difluorophenyl)-1,3,4-thiadiazol-2-yl]-[(4R,7S)-4,7-dimethyl-4-(1-methylpyrazol-4-yl)-5,7-dihydrothieno[2,3-c]pyridin-6-yl]methanone], for which the pest or weed control at 200 ppm (in assay [5]; in assay [6]; with Alternaria solani; in the assay on Pyrenophora teres) was no less than 80% throughout. The inhibition of growth at 20 ppm (in assay [2]; in the assay on Fusarium culmorum; in assay [7]; in assay [3]; with Sclerotinia sclerotiorum; in assay [4]) was no less than 80% throughout. The molecule also showed an inhibition of growth at 20 ppm in assay [8] of no less than 80%.

In the case of `Cn1cc(C2(C)CN(C(=O)c3nnc(-c4ccc(F)cc4F)s3)Cc3sccc32)cn1` (stereo not drawn) [Compound P-18, methylpyrazol-4-yl)-5,7-[5-(2,4-difluorophenyl)-1,3,4-thiadiazol-2-yl]-[4-methyl-4-(1-dihydrothieno[2,3-c]pyridin-6-yl]methanone], the pest or weed control at 200 ppm (in assay [5]; in assay [6]; in the assay on Alternaria solani; in the assay with Pyrenophora teres) was no less than 80% in each case. Further, the inhibition of growth at 20 ppm (in [2]; in the assay on Fusarium culmorum; in [7]; in [3]; in the assay on Sclerotinia sclerotiorum; in assay [8]) was no less than 80% each time.

In the case of `Cc1c(C2CN(C(=O)c3nnc(-c4ccc(F)cc4F)s3)Cc3sccc32)cnn1C` (stereo not drawn) [Compound P-25, [5-(2,4-difluorophenyl)-1,3,4-thiadiazol-2-yl]-[4-(1,5-dimethylpyrazol-4-yl)-5,7-dihydro-4H-thieno[2,3-c]pyridin-6-yl]methanone], the pest or weed control at 200 ppm (in [5]; in assay [6]; in the assay with Alternaria solani; with Pyrenophora teres) was no less than 80% each time. Also, the inhibition of growth at 20 ppm (in [2]; in the assay on Fusarium culmorum; in [7]; in the assay with Sclerotinia sclerotiorum; in assay [4]; in assay [8]) was no less than 80% in each case.

As for `Cc1c(C2CN(C(=O)c3cc(-c4ccc(F)cc4F)on3)Cc3sccc32)cnn1C` (stereo not drawn) [Compound P-32, [5-(2,4-difluorophenyl)isoxazol-3-yl]-[4-(1,5-dimethylpyrazol-4-yl)-5,7-dihydro-4H-thieno[2,3-c]pyridin-6-yl]methanone], the pest or weed control at 200 ppm (in assay [5]; in assay [6]; with Alternaria solani; with Pyrenophora teres) was no less than 80% throughout. Besides, the inhibition of growth at 20 ppm (in assay [2]; in the assay on Fusarium culmorum; in [7]; in assay [3]; with Sclerotinia sclerotiorum; in assay [4]) was no less than 80% in each case. Besides, the inhibition of growth at 20 ppm in [8] was no less than 80%.

With `Cc1c(C2CN(C(=O)c3cc(-c4ccc(F)cc4F)on3)Cc3ccsc32)cnn1C` (stereo not drawn) [Compound P-33, [5-(2,4-difluorophenyl)isoxazol-3-yl]-[7-(1,5-dimethylpyrazol-4-yl)-6,7-dihydro-4H-thieno[3,2-c]pyridin-5-yl]methanone], the pest or weed control at 200 ppm (in [5]; in assay [6]; in the assay with Alternaria solani; in the assay on Pyrenophora teres) was no less than 80% in each case. Moreover, the inhibition of growth at 20 ppm (in [2]; in the assay on Fusarium culmorum; in assay [7]; in [3]; with Sclerotinia sclerotiorum; in assay [4]) was no less than 80% each time. For the same molecule, the inhibition of growth at 20 ppm in assay [8] is no less than 80%.

For the origin of these results see US20250049035A1, “MICROBIOCIDAL BICYCLE HETEROCYCLIC DERIVATIVES” (SYNGENTA CROP PROTECTION AG, priority 2021, published 2025).
